This note sets out measurements from ChEMBL document CHEMBL5154828 (J Med Chem, 2022).

The source made the active and inactive calls. No cut-off for these calls is given here.

Data set [1] is described as follows: Cmax in Sprague-Dawley rat at 10 mg/kg, po measured up to 24 hrs by LC/MS/MS analysis. It is filed as ADME, organism-based. Set-up: time < 24 hrs, dose 10 mg/kg, route po. As to conditions: in vivo.
The target of data set [2] is T1, Estrogen receptor (Homo sapiens, UniProt P03372).
T1 sequence (P03372 whole entry): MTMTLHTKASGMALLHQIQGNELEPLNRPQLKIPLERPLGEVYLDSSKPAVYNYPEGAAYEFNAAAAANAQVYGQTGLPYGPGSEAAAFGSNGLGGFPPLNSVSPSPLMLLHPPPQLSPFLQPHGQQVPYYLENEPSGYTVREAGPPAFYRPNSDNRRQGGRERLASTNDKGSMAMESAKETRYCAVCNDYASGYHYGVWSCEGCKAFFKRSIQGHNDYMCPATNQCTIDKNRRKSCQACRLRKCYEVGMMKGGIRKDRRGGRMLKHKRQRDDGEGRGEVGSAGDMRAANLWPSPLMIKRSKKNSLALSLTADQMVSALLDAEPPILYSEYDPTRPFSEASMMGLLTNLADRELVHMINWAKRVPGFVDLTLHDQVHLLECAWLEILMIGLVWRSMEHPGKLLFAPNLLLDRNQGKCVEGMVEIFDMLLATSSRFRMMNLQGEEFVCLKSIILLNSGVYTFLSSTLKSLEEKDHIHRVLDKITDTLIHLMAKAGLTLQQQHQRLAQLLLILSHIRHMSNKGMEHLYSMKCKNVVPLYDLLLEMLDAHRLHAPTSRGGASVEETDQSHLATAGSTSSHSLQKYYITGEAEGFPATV
The data set can be described thus: Antagonist activity at ERalpha expressed in HEK293/Gal4 cells incubated for 24 hrs in presence of estradiol by luciferase reporter gene assay. The format is cell-based. For orientation: In a reporter assay the amount or activity of a reporter protein is the signal.

A short description of data set [3]: AUC (0 to t) in Sprague-Dawley rat at 10 mg/kg, po measured up to 24 hrs by LC/MS/MS analysis. The format is ADME, organism-based. Set-up: time < 24 hrs, dose 10 mg/kg, route po. To be noted: in vivo.
In data set [4] the target is T1, Estrogen receptor. The data set can be described thus: Induction of ERalpha degradation in human MCF7 cells incubated for 24 hrs by Western blot analysis. It is filed as cell-based.
For data set [5], the system named is MCF7. Description: Antiproliferative activity against human MCF7 cells assessed as inhibition of cell growth measured after 6 days by cell titre glo luminescence assay. As to conditions: MCF7, 144 h.
Data set [6] deals with Voltage-gated inwardly rectifying potassium channel KCNH2 (Homo sapiens, UniProt Q12809). The data set can be described thus: Inhibition of human ERG potassium channel expressed in CHO cells by patch-clamp assay. The format is toxicity, cell-based. Background: In patch-clamp work, channel activity is measured electrically.
Chain of Voltage-gated inwardly rectifying potassium channel KCNH2 (Q12809 whole entry): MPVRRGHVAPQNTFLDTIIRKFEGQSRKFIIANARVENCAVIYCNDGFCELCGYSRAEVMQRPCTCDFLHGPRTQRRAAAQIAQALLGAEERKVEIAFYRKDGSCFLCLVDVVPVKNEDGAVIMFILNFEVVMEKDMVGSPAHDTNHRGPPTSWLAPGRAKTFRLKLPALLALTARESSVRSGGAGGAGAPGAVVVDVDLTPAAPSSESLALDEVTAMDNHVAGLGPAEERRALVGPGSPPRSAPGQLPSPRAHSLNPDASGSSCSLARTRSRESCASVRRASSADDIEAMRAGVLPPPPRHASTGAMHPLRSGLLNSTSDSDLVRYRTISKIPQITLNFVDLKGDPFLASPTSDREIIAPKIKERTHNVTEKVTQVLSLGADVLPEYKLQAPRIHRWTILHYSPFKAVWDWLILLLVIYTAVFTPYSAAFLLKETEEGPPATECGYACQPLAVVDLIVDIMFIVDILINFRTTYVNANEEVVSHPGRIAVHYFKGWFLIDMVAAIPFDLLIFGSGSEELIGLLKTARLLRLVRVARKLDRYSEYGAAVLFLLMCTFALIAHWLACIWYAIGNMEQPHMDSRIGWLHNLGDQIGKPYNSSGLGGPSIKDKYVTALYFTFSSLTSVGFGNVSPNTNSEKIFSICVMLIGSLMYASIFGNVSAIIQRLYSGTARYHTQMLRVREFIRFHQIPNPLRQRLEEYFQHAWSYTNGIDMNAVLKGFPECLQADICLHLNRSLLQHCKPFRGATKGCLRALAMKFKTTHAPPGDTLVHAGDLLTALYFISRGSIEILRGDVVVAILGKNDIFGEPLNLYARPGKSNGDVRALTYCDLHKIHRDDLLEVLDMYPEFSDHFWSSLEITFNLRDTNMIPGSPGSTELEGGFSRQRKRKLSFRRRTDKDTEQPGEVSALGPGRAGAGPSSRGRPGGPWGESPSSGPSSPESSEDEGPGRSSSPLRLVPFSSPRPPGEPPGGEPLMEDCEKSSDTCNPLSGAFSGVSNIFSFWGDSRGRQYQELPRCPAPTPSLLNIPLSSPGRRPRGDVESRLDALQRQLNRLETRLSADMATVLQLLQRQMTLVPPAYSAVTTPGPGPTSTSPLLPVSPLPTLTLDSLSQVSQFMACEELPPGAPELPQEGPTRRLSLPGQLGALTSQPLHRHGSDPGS
For data set [7], the system named is MCF7. The data set can be described thus: Anti-hyperplasia activity in […] Sprague-Dawley rat assessed as appearance of tall columnar phenotype in epithelial cells at 60 mg/kg, po once daily for 3 days by hematoxylin and eosin staining based assay. It is filed as functional, organism-based. As to conditions: time 3.0 day.
The next data set addresses Estrogen receptor beta (Homo sapiens, UniProt Q92731). The data set can be described thus: Antagonist activity at ERbeta expressed in HEK293/Gal4 cells incubated for 24 hrs in presence of di-arylpropionitrile by luciferase reporter gene assay.
The target in data set [8] is Estrogen receptor (Homo sapiens, UniProt P03372, D538G). The data set can be described thus: Antagonist activity at ERalpha D538G mutant degradation in human SK-BR-3 cells incubated for 24 hrs in presence of beta-estradiol by luciferase gene assay. The format is cell-based.
Chain of Estrogen receptor (Homo sapiens, UniProt P03372, D538G) (P03372 whole entry D538G): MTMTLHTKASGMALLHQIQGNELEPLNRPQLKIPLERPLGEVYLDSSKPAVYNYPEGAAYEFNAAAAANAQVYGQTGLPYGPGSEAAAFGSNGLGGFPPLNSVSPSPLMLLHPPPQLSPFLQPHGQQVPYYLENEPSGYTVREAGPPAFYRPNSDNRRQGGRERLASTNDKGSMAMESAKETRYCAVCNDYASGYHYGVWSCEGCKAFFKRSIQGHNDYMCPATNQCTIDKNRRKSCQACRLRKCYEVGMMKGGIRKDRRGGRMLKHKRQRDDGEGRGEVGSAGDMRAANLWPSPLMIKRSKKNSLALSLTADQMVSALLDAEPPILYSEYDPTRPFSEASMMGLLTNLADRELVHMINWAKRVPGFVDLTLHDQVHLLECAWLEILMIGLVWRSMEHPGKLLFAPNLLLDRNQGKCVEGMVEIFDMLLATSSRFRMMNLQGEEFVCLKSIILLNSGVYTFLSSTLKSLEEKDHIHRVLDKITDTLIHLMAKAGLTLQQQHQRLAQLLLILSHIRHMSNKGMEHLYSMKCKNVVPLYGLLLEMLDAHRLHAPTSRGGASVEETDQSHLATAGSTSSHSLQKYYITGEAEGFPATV
Data set [9] concerns the target Estrogen receptor (Homo sapiens, UniProt P03372, Y537S). Description: Antagonist activity at ERalpha Y537S mutant degradation in human SK-BR-3 cells incubated for 24 hrs in presence of beta-estradiol by luciferase gene assay. The format is cell-based.
The nature of data set [10]: Cmax in Sprague-Dawley rat at 5 mg/kg, po measured up to 24 hrs by LC/MS/MS analysis. It is filed as ADME, organism-based. On the set-up: time < 24 hrs, dose 5 mg/kg, route po. As to conditions: in vivo.
Data set [11] in a line: AUC (0 to t) in Sprague-Dawley rat at 5 mg/kg, po measured up to 24 hrs by LC/MS/MS analysis. As to conditions: in vivo. Set-up: time < 24 hrs, dose 5 mg/kg, route po. The format is ADME, organism-based.

Chain of Estrogen receptor beta (Q92731 whole entry, the tested form may be a part): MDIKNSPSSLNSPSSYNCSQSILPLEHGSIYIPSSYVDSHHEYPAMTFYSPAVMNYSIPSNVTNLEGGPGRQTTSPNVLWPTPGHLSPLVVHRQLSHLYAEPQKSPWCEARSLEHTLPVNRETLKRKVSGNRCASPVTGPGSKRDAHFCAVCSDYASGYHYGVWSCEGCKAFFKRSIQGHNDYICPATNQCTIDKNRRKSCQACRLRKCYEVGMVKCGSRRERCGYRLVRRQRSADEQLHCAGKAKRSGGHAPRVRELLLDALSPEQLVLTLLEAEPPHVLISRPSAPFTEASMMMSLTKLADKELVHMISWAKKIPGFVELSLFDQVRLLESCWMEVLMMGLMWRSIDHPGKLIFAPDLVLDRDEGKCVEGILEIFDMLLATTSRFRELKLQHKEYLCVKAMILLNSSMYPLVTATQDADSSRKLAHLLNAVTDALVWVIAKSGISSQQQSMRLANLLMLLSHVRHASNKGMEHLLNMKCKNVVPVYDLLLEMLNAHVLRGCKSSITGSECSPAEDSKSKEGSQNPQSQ
Chain of Estrogen receptor (Homo sapiens, UniProt P03372, Y537S) (P03372 whole entry Y537S): as the sequence (P03372 whole entry D538G) above, with Y537S, G538D counted along it

As usually defined, the Cmax is the maximum level reached in the sampled fluid or tissue. As usually defined, the IC50 is the midpoint of a concentration-inhibition curve. Broadly, the AUC(0-t) is exposure summed from dosing to a finite time, without extrapolation to infinity. A high value points to high exposure. The EC50 is the concentration needed to bring the measured effect to its halfway point. Regarding `COc1cc(Oc2c(-c3ccc(F)cc3C(C)(C)F)sc3c2ccc2[nH]ncc23)ccc1OC1CN(CCCF)C1`, the peak level in [1] (Cmax) was 47 ng/mL. Besides, the IC50 at Estrogen receptor [2] was 0.8 nM; with MCF7 [5], 0.5 nM; in data set [6] it was more than 40000 nM. The molecule further registered an AUC(0-t) at 24 h in [3] of 264 ng·h/mL. At Estrogen receptor [4], the 50% effective concentration (EC50) is 1.4 nM.
Turning to `CC/C(=C(\c1ccc(O)cc1)c1ccc(OCCN(C)C)cc1)c1ccccc1`, the result in the data set on MCF7 [7] was Active.
Turning to `CC(F)(F)c1cc(F)c(F)cc1-c1sc2c(ccc3[nH]ncc32)c1Oc1ccc(OC2CN(CCCF)C2)c(F)c1`, in data set [1], the Cmax came out at 132 ng/mL. Further, the IC50 is 5.3 nM on Estrogen receptor [2], 2.8 nM with MCF7 [5] and more than 40000 nM in data set [6]. In data set [3], this molecule registered an exposure AUC(0-t) at 24 h of 1280 ng·h/mL. At Estrogen receptor [4], this molecule came in with an EC50 of 3.9 nM.
In the case of `O=C(O)c1ccc2c(c1)CCCC(c1ccc(Cl)cc1Cl)=C2c1ccc(O[C@H]2CCN(CCCF)C2)cc1` [AMCENESTRANT], the half-inhibitory concentration (IC50) was determined as 8.6 nM at Estrogen receptor beta and 9.1 nM in the data set on MCF7 [5].
As for `CC(F)(F)c1cc(Cl)ccc1-c1sc2c(ccc3[nH]ncc32)c1Oc1ccc(NC2CN(CCCF)C2)cc1`, the highest level in [1] (Cmax) was 228 ng/mL. Also, the concentration for half-maximal inhibition (IC50) came to 16.6 nM at Estrogen receptor [8] and 13.1 nM at Estrogen receptor [9]. Further, in [3], the area under the curve AUC(0-t) at 24 h turned out to be 3090 ng·h/mL. At Estrogen receptor [4], this molecule displayed a concentration giving a half-maximal response (EC50) of 1.2 nM.
Molecule `CC(F)(F)c1cc(-c2sc3cc(O)ccc3c2Oc2ccc(/C=C/C(=O)O)cc2)ccc1F` came in with a maximum concentration (Cmax) in data set [10] of 283 ng/mL. In data set [11], the AUC(0-t) at 24 h was determined as 585 ng·h/mL.
